Test results taken from PubChem BioAssay AID1259407 (Chemical Carcinogenesis Research Information System (CCRIS), 2018).
The source made the active and inactive calls. How the calls were made is not given here.

System: CCRIS mutagenicity, Ames/micronucleus/aberration tests
Test: CCRIS mutagenicity studies
[1] = Test System: AMES SALMONELLA TYPHIMURIUM, Strain/Indicator: TA98, Metabolic Activation: HAMSTER, LIVER, S-9, AROCLOR 1254, Method: STANDARD PLATE
[2] = Test System: AMES SALMONELLA TYPHIMURIUM, Strain/Indicator: TA98, Metabolic Activation: NONE, Method: STANDARD PLATE
[3] = Test System: AMES SALMONELLA TYPHIMURIUM, Strain/Indicator: TA98, Metabolic Activation: RAT, LIVER, S-9, AROCLOR 1254, Method: STANDARD PLATE
[4] = Test System: AMES SALMONELLA TYPHIMURIUM, Strain/Indicator: TA100, Metabolic Activation: HAMSTER, LIVER, S-9, AROCLOR 1254, Method: STANDARD PLATE
[5] = Test System: AMES SALMONELLA TYPHIMURIUM, Strain/Indicator: TA100, Metabolic Activation: NONE, Method: PREINCUBATION
[6] = Test System: AMES SALMONELLA TYPHIMURIUM, Strain/Indicator: TA100, Metabolic Activation: NONE, Method: STANDARD PLATE
[7] = Test System: AMES SALMONELLA TYPHIMURIUM, Strain/Indicator: TA100, Metabolic Activation: RAT, LIVER, S-9, AROCLOR 1254, Method: STANDARD PLATE
[8] = Test System: AMES SALMONELLA TYPHIMURIUM, Strain/Indicator: TA102, Metabolic Activation: NONE, Method: PREINCUBATION
[9] = Test System: AMES SALMONELLA TYPHIMURIUM, Strain/Indicator: TA102, Metabolic Activation: RAT, LIVER, S-9, AROCLOR 1254, Method: PREINCUBATION
[10] = Test System: AMES SALMONELLA TYPHIMURIUM, Strain/Indicator: TA1535, Metabolic Activation: HAMSTER, LIVER, S-9, AROCLOR 1254, Method: STANDARD PLATE
[11] = Test System: AMES SALMONELLA TYPHIMURIUM, Strain/Indicator: TA1535, Metabolic Activation: NONE, Method: STANDARD PLATE
[12] = Test System: AMES SALMONELLA TYPHIMURIUM, Strain/Indicator: TA1535, Metabolic Activation: RAT, LIVER, S-9, AROCLOR 1254, Method: STANDARD PLATE
[13] = Test System: AMES SALMONELLA TYPHIMURIUM, Strain/Indicator: TA1537, Metabolic Activation: HAMSTER, LIVER, S-9, AROCLOR 1254, Method: STANDARD PLATE
[14] = Test System: AMES SALMONELLA TYPHIMURIUM, Strain/Indicator: TA1537, Metabolic Activation: NONE, Method: STANDARD PLATE
[15] = Test System: AMES SALMONELLA TYPHIMURIUM, Strain/Indicator: TA1537, Metabolic Activation: RAT, LIVER, S-9, AROCLOR 1254, Method: STANDARD PLATE
[16] = Test System: AMES SALMONELLA TYPHIMURIUM, Strain/Indicator: TA1538, Metabolic Activation: HAMSTER, LIVER, S-9, AROCLOR 1254, Method: STANDARD PLATE
[17] = Test System: AMES SALMONELLA TYPHIMURIUM, Strain/Indicator: TA1538, Metabolic Activation: NONE, Method: STANDARD PLATE
[18] = Test System: AMES SALMONELLA TYPHIMURIUM, Strain/Indicator: TA1538, Metabolic Activation: RAT, LIVER, S-9, AROCLOR 1254, Method: STANDARD PLATE
[19] = Test System: Mouse lymphoma, Strain/Indicator: L5178Y (tk+/tk-), Metabolic Activation: None, Method: Suspension/plate
[20] = Test System: Mouse lymphoma, Strain/Indicator: L5178Y (tk+/tk-), Metabolic Activation: Rat, Liver, S-9, Aroclor 1254, Method: Suspension/plate
[21] = Test System: AMES SALMONELLA TYPHIMURIUM, Strain/Indicator: TA100, Metabolic Activation: RAT, LIVER, MICROSOMES, PHENOBARBITAL, Method: STANDARD PLATE

**Q.** Which mutagenic call [1] does the source give for `c1ccc2nccnc2c1` here?
**A.** inactive; negative

**Q.** What about the mutagenic call (Test System: AMES SALMONELLA TYPHIMURIUM, Strain/Indicator: TA98, Metabolic Activation: NONE, Method: PREINCUBATION) of the same compound?
**A.** inactive; negative

**Q.** What about the mutagenic call [2] of the same compound?
**A.** inactive; negative

**Q.** And the mutagenic call (Test System: AMES SALMONELLA TYPHIMURIUM, Strain/Indicator: TA98, Metabolic Activation: RAT, LIVER, S-9, AROCLOR 1254, Method: PREINCUBATION)?
**A.** active; positive

**Q.** What about the mutagenic call [3] of the same compound?
**A.** inactive; negative

**Q.** What about the mutagenic call [4] of the same compound?
**A.** inactive; negative

**Q.** And the mutagenic call [5]?
**A.** inactive; negative

**Q.** What about the mutagenic call [6] of the same compound?
**A.** inactive; negative

**Q.** And the mutagenic call (Test System: AMES SALMONELLA TYPHIMURIUM, Strain/Indicator: TA100, Metabolic Activation: RAT, LIVER, S-9, AROCLOR 1254, Method: PREINCUBATION)?
**A.** inactive; negative

**Q.** What about the mutagenic call [7] of the same compound?
**A.** inactive; negative

**Q.** And the mutagenic call [8]?
**A.** inactive; negative

**Q.** And the mutagenic call [9]?
**A.** inactive; negative

**Q.** And the mutagenic call [10]?
**A.** inactive; negative

**Q.** And the mutagenic call [11]?
**A.** inactive; negative

**Q.** And the mutagenic call [12]?
**A.** inactive; negative

**Q.** And the mutagenic call [13]?
**A.** inactive; negative

**Q.** What about the mutagenic call [14] of the same compound?
**A.** inactive; negative

**Q.** And the mutagenic call [15]?
**A.** inactive; negative

**Q.** What about the mutagenic call [16] of the same compound?
**A.** inactive; negative

**Q.** What about the mutagenic call [17] of the same compound?
**A.** inactive; negative

**Q.** What about the mutagenic call [18] of the same compound?
**A.** inactive; negative

**Q.** What about the mutagenic call [19] of the same compound?
**A.** inactive; negative

**Q.** What about the mutagenic call [20] of the same compound?
**A.** active; positive

**Q.** What does the source list for `[CH3][Sn]([CH3])([CH3])[Cl]`?
**A.** mutagenic call (Test System: AMES SALMONELLA TYPHIMURIUM, Strain/Indicator: TA98, Metabolic Activation: NONE, Method: SUSPENSION/PLATE): inactive; negative; mutagenic call (Test System: AMES SALMONELLA TYPHIMURIUM, Strain/Indicator: TA100, Metabolic Activation: NONE, Method: SUSPENSION/PLATE): inactive; negative

**Q.** With `CS(=O)(=O)Nc1ccc(Nc2c3ccc(N=[N+]=[N-])cc3nc3cc(N=[N+]=[N-])ccc23)cc1` as the compound, how does the mutagenic call [14] read?
**A.** active; positive

**Q.** Which results are given for `Cc1ncc(CO)c(CO)c1O`?
**A.** mutagenic call (Test System: AMES SALMONELLA TYPHIMURIUM, Strain/Indicator: TA97A, Metabolic Activation: NONE, Method: PREINCUBATION): inactive; negative; mutagenic call (Test System: AMES SALMONELLA TYPHIMURIUM, Strain/Indicator: TA97A, Metabolic Activation: RAT, LIVER, S-9, AROCLOR 1254, Method: PREINCUBATION): inactive; negative; mutagenic call [8]: inactive; negative; mutagenic call [9]: inactive; negative

**Q.** `N[C@@H](CSC(F)(F)C(F)(F)C(F)F)C(=O)O` was tested. Which mutagenic call (Test System: AMES SALMONELLA TYPHIMURIUM, Strain/Indicator: TA100, Metabolic Activation: RAT, KIDNEY, S-9, AROCLOR 1254, Method: STANDARD PLATE) did it give?
**A.** inactive; negative

**Q.** `O=C1C=C2C(=CCOC2O)O1` (stereo unspecified) was tested. Which mutagenic call (End Point: In vitro micronucleus, Test System: Human hepatoma HepG2 cells, Metabolic Activation: None) did it give?
**A.** active; positive. depletion of glutathione increased patulin-induced micronuclei frequen

**Q.** What about the mutagenic call (Test System: AMES SALMONELLA TYPHIMURIUM, Strain/Indicator: TA98, Metabolic Activation: RAT, LIVER, MICROSOMES, PHENOBARBITAL, Method: STANDARD PLATE) of the same compound?
**A.** inactive; negative

**Q.** And the mutagenic call [5]?
**A.** inactive; negative

**Q.** And the mutagenic call [21]?
**A.** inactive; negative

**Q.** What about the mutagenic call (Test System: AMES SALMONELLA TYPHIMURIUM, Strain/Indicator: TA100, Metabolic Activation: RAT, LIVER, S-9, PHENOBARBITAL, Method: PREINCUBATION) of the same compound?
**A.** inactive; negative

**Q.** What about the mutagenic call (Test System: AMES SALMONELLA TYPHIMURIUM, Strain/Indicator: TA102, Metabolic Activation: NONE, Method: STANDARD PLATE) of the same compound?
**A.** inactive; negative

**Q.** And the mutagenic call (Test System: AMES SALMONELLA TYPHIMURIUM, Strain/Indicator: TA102, Metabolic Activation: RAT, LIVER, S-9, AROCLOR 1254, Method: STANDARD PLATE)?
**A.** inactive; negative

**Q.** For `C(COCC1CO1)OCC1CO1` (stereo unspecified), which mutagenic call [6] is on record?
**A.** active; positive

**Q.** And the mutagenic call [11]?
**A.** active; positive

**Q.** `ClC[C@H]1CO1` was tested. Which mutagenic call [5] did it give?
**A.** active; positive

**Q.** And the mutagenic call [6]?
**A.** active; positive

**Q.** And the mutagenic call (Test System: AMES SALMONELLA TYPHIMURIUM, Strain/Indicator: TA100, Metabolic Activation: RAT, LIVER, S-9, PCB, Method: PREINCUBATION)?
**A.** active; positive

**Q.** How did the mutagenic call [1] turn out when `CC(=O)CC(C)(C)O` was run?
**A.** inactive; negative

**Q.** What about the mutagenic call [2] of the same compound?
**A.** inactive; negative

**Q.** And the mutagenic call [3]?
**A.** inactive; negative

**Q.** What about the mutagenic call [4] of the same compound?
**A.** inactive; negative

**Q.** What about the mutagenic call [6] of the same compound?
**A.** inactive; negative

**Q.** What about the mutagenic call [7] of the same compound?
**A.** inactive; negative

**Q.** What about the mutagenic call [10] of the same compound?
**A.** inactive; negative

**Q.** What about the mutagenic call [11] of the same compound?
**A.** inactive; negative

**Q.** What about the mutagenic call [12] of the same compound?
**A.** inactive; negative

**Q.** What about the mutagenic call [13] of the same compound?
**A.** inactive; negative

**Q.** And the mutagenic call [14]?
**A.** inactive; negative

**Q.** What about the mutagenic call [15] of the same compound?
**A.** inactive; negative

**Q.** And the mutagenic call [16]?
**A.** inactive; negative

**Q.** And the mutagenic call [17]?
**A.** inactive; negative

**Q.** And the mutagenic call [18]?
**A.** inactive; negative

**Q.** What about the mutagenic call [19] of the same compound?
**A.** inactive; negative

**Q.** What about the mutagenic call [20] of the same compound?
**A.** inactive; negative

**Q.** With `CNC(=O)ON` as the compound, how does the mutagenic call [2] read?
**A.** active; positive

**Q.** And the mutagenic call (Test System: AMES SALMONELLA TYPHIMURIUM, Strain/Indicator: TA98, Metabolic Activation: RAT, LIVER, S-9, Method: STANDARD PLATE)?
**A.** active; positive

**Q.** What about the mutagenic call [6] of the same compound?
**A.** active; positive

**Q.** What does the source list for `O=c1c(O)c(-c2ccc(O)c(O)c2)oc2cc(O)ccc12`?
**A.** mutagenic call (End Point: IN VITRO CHROMOSOMAL ABERRATIONS, Test System: HUMAN HL60 CELLS, Metabolic Activation: NONE): active; positive (structural changes); mutagenic call (End Point: IN VITRO CHROMOSOMAL ABERRATIONS, Test System: HUMAN TK6 CELLS, Metabolic Activation: NONE): active; positive (structural changes); mutagenic call (End Point: IN VITRO MICRONUCLEUS, Test System: HUMAN HL60 CELLS, Metabolic Activation: NONE): active; positive; mutagenic call (End Point: IN VITRO MICRONUCLEUS, Test System: HUMAN TK6 CELLS, Metabolic Activation: NONE): active; positive; mutagenic call (Test System: Ames Salmonella typhimurium, Strain/Indicator: TA102, Metabolic Activation: None, Method: Preincubation): inactive; negative; mutagenic call (Test System: Ames Salmonella typhimurium, Strain/Indicator: TA102, Metabolic Activation: Rat, Liver, S-9, Aroclor 1254 in 0.154 M KCl, Method: Preincubation): inactive; negative

**Q.** With `ClCC(Cl)CBr` (stereo unspecified) as the compound, how does the mutagenic call (Test System: AMES SALMONELLA TYPHIMURIUM, Strain/Indicator: TA100, Metabolic Activation: RAT, LIVER, MICROSOMES, PHENOBARBITAL, NADPH COFACTORS, Method: STANDARD PLATE) read?
**A.** active; positive

**Q.** What about the mutagenic call [21] of the same compound?
**A.** inactive; negative
